# Results published in US20230157952A1, “METHOD FOR IMPROVING THE STABILITY OF A PHARMACEUTICAL COMPOSITION COMPRISING A HIGH PENETRATION DRUG, AND THE PHARMACEUTICAL COMPOSITION OBTAINED THEREFROM” (Techfields Inc., priority 2020, published 2023).
# Test: Effect of concentration on the stability of the solution (purity over time)
# Conditions: for Stability of common ester over the concentrations tested: 0.01% to 10% (or higher) in 50% ethanol at 25° C.; for Purity (%) at Day 3 / Purity (%) at Day 7 / Purity (%) at hr 0 / Purity (%) at hr 24 / Purity(%) at Day 14 / Purity(%) at Day 21 / Purity(%) at Day 28 / Purity (%) at hr 2: 25° C.
compound,measurement,setting,value
"CC(C)(C)OC(=O)C(N)Cc1ccccc1 (centres unmarked) [t-Butyl 2-amino-3-phenylpropanoate, reference compound]",Stability of common ester over the concentrations tested,,not stable
same,Purity (%) at Day 3,0.01 wt % in 50% ethanol,92.1%
same,Purity (%) at Day 7,0.01 wt % in 50% ethanol,89.4%
same,Purity (%) at hr 0,0.01 wt % in 50% ethanol,98.0%
same,Purity (%) at hr 24,0.01 wt % in 50% ethanol,96.1%
same,Purity(%) at Day 14,0.01 wt % in 50% ethanol,83.0%
same,Purity(%) at Day 21,0.01 wt % in 50% ethanol,60.2%
same,Purity(%) at Day 28,0.01 wt % in 50% ethanol,35.2%
same,Purity (%) at Day 3,0.1 wt % in 50% ethanol,93.1%
same,Purity (%) at Day 7,0.1 wt % in 50% ethanol,91.4%
same,Purity (%) at hr 0,0.1 wt % in 50% ethanol,98.0%
same,Purity (%) at hr 24,0.1 wt % in 50% ethanol,96.4%
same,Purity(%) at Day 14,0.1 wt % in 50% ethanol,86.1%
same,Purity(%) at Day 21,0.1 wt % in 50% ethanol,64.1%
same,Purity(%) at Day 28,0.1 wt % in 50% ethanol,41.0%
same,Purity (%) at Day 3,1 wt % in 50% ethanol,93.9%
same,Purity (%) at Day 7,1 wt % in 50% ethanol,92.2%
same,Purity (%) at hr 0,1 wt % in 50% ethanol,98.1%
same,Purity (%) at hr 24,1 wt % in 50% ethanol,96.7%
same,Purity(%) at Day 14,1 wt % in 50% ethanol,88.9%
same,Purity(%) at Day 21,1 wt % in 50% ethanol,70.9%
same,Purity(%) at Day 28,1 wt % in 50% ethanol,48.9%
same,Purity (%) at Day 3,3 wt % in 50% ethanol,94.6%
same,Purity (%) at Day 7,3 wt % in 50% ethanol,92.4%
same,Purity (%) at hr 0,3 wt % in 50% ethanol,98.2%
same,Purity (%) at hr 24,3 wt % in 50% ethanol,96.9%
same,Purity(%) at Day 14,3 wt % in 50% ethanol,89.5%
same,Purity(%) at Day 21,3 wt % in 50% ethanol,72.4%
same,Purity(%) at Day 28,3 wt % in 50% ethanol,50.4%
same,Purity (%) at Day 3,5 wt % in 50% ethanol,94.8%
same,Purity (%) at Day 7,5 wt % in 50% ethanol,93.1%
same,Purity (%) at hr 0,5 wt % in 50% ethanol,98.1%
same,Purity (%) at hr 24,5 wt % in 50% ethanol,97.0%
same,Purity(%) at Day 14,5 wt % in 50% ethanol,90.0%
same,Purity(%) at Day 21,5 wt % in 50% ethanol,73.0%
same,Purity(%) at Day 28,5 wt % in 50% ethanol,56.9%
same,Purity (%) at Day 3,10 wt % in 50% ethanol,95.9%
same,Purity (%) at Day 7,10 wt % in 50% ethanol,93.9%
same,Purity (%) at hr 0,10 wt % in 50% ethanol,98.2%
same,Purity (%) at hr 24,10 wt % in 50% ethanol,97.6%
same,Purity(%) at Day 14,10 wt % in 50% ethanol,91.0%
same,Purity(%) at Day 21,10 wt % in 50% ethanol,74.9%
same,Purity(%) at Day 28,10 wt % in 50% ethanol,59.2%
"CC(C)(C)OC(=O)c1ccccc1 [t-Butyl benzoate, reference compound]",Stability of common ester over the concentrations tested,,very unstable
same,Purity (%) at Day 3,0.01 wt % in 50% ethanol,0.0%
same,Purity (%) at Day 7,0.01 wt % in 50% ethanol,0.0%
same,Purity (%) at hr 0,0.01 wt % in 50% ethanol,97.5%
same,Purity (%) at hr 2,0.01 wt % in 50% ethanol,25.2%
same,Purity (%) at hr 24,0.01 wt % in 50% ethanol,0.0%
same,Purity(%) at Day 14,0.01 wt % in 50% ethanol,0.0%
same,Purity (%) at Day 3,0.1 wt % in 50% ethanol,0.0%
same,Purity (%) at Day 7,0.1 wt % in 50% ethanol,0.0%
same,Purity (%) at hr 0,0.1 wt % in 50% ethanol,97.4%
same,Purity (%) at hr 2,0.1 wt % in 50% ethanol,31.2%
same,Purity (%) at hr 24,0.1 wt % in 50% ethanol,0.0%
same,Purity(%) at Day 14,0.1 wt % in 50% ethanol,0.0%
same,Purity (%) at Day 3,1 wt % in 50% ethanol,0.0%
same,Purity (%) at Day 7,1 wt % in 50% ethanol,0.0%
same,Purity (%) at hr 0,1 wt % in 50% ethanol,97.5%
same,Purity (%) at hr 2,1 wt % in 50% ethanol,41.3%
same,Purity (%) at hr 24,1 wt % in 50% ethanol,1.6%
same,Purity(%) at Day 14,1 wt % in 50% ethanol,0.0%
same,Purity (%) at Day 3,3 wt % in 50% ethanol,1.1%
same,Purity (%) at Day 7,3 wt % in 50% ethanol,0.0%
same,Purity (%) at hr 0,3 wt % in 50% ethanol,97.4%
same,Purity (%) at hr 2,3 wt % in 50% ethanol,52.3%
same,Purity (%) at hr 24,3 wt % in 50% ethanol,15.4%
same,Purity(%) at Day 14,3 wt % in 50% ethanol,0.0%
same,Purity (%) at Day 3,5 wt % in 50% ethanol,3.6%
same,Purity (%) at Day 7,5 wt % in 50% ethanol,0.0%
same,Purity (%) at hr 0,5 wt % in 50% ethanol,97.4%
same,Purity (%) at hr 2,5 wt % in 50% ethanol,56.3%
same,Purity (%) at hr 24,5 wt % in 50% ethanol,20.3%
same,Purity(%) at Day 14,5 wt % in 50% ethanol,0.0%
same,Purity (%) at Day 3,10 wt % in 50% ethanol,5.1%
same,Purity (%) at Day 7,10 wt % in 50% ethanol,0.0%
same,Purity (%) at hr 0,10 wt % in 50% ethanol,97.8%
same,Purity (%) at hr 2,10 wt % in 50% ethanol,65.5%
same,Purity (%) at hr 24,10 wt % in 50% ethanol,25.1%
same,Purity(%) at Day 14,10 wt % in 50% ethanol,0.0%
